{"source": "patent US10730868B2", "about": "“Bicyclic heteroaryl substituted compounds” (BRISTOL-MYERS SQUIBB COMPANY, priority 2016, dated 2020)", "data": [{"biological_target": "PAR4 (Homo sapiens (Human), UniProt Q96RI0)", "sequence (Q96RI0 18-385)": "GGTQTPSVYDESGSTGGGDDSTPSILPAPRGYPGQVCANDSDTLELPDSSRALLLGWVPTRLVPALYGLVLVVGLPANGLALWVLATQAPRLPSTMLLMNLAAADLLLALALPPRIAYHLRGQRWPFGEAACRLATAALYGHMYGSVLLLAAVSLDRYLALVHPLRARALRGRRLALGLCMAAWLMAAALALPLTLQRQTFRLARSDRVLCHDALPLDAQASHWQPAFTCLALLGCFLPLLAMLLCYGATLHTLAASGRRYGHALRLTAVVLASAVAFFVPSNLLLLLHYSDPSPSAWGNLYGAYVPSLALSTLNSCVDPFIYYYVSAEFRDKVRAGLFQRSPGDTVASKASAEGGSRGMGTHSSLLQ", "test": "PAR4 FLIPR assay (antagonism of agonist-peptide-induced calcium mobilization)", "type": "cell-based", "conditions": "H-Ala-Phe(4-F)-Pro-Gly-Trp-Leu-Val-Lys-Asn-Gly-NH2-induced intracellular calcium mobilization, PAR4-expressing HEK293 cells; read-out: PAR4 FLTPR assay (IC50)", "source_text": "(§1) The Fluorometric Imaging Plate Reader (FLIPR) assay is an exemplary in vitro assay for measuring the activity of the PAR4 antagonists of the present invention. In this assay, intracellular calcium mobilization is induced in PAR4 expressing cells by a PAR4 agonist and calcium mobilization is monitored.\n(§2) HEK293 cells stably expressing PAR4 were generated by a standard method of transfection of human PAR4 (F2R23) cDNA expression vector and selected based on PAR4 protein expression or mRNA expression. […] These cells also express endogenous PAR1 and can elicit calcium signal upon stimulation with PAR1 agonist peptide. Therefore, the same cells were also used to determine selectivity against PAR1 and agonist activity for both receptors. Cells from HEK293 PAR4 Clone 1.2A (BMS Arctic ID 383940) were propagated and used for calcium mobilization studies.\n(§3) FLIPR-based calcium mobilization assay in HEK293 cells was used to measure PAR4 antagonism agonism, and selectivity against PAR1. The activity of the PAR4 antagonists of the present invention were tested in PAR4 expressing cells by monitoring H-Ala-Phe(4-F)-[…]NH2-induced intracellular calcium mobilization. Counter screens for agonist activity and PAR1 antagonist activity were also performed. Briefly, PAR/PAR4-expressing HEK293 cells were grown in DMEM (Life Technology, Grand Island, N.Y.) containing 10% heat-inactivated FBS, 1% Penicillin-Streptomycin, 10 μg/mL blasticidin, and 100 μg/mL Zeocin at 37° C. with 5% CO2. Cells were plated overnight prior to the experiment in a black 384-well Purecoat Amine clear bottom plate (Becton Dickinson Biosciences, San Jose, Calif.) at 10,000 cells/well in 30 μL growth medium and incubated in a humidified chamber at 37° C. with 5% CO2 overnight. Prior to compound addition, the cell medium was replaced with 40 μL of 1× calcium and magnesium-containing Hank's Balanced Saline Solution (HBSS) (with 20 mM HEPES) and 1:1000 diluted fluorescent calcium indicator (Codex Biosolutions, Gaithersburg, Md.). After a 30 minute incubation period at 37° C. and a further 30 minute incubation and equilibration period at room temperature, 20 μL test compound (diluted in 1×HBSS buffer) was added at various concentrations at 0.17% dimethyl sulfoxide (DMSO) final concentration. Changes in fluorescence intensity were measured using a Functional Drug Screening System (FDSS, Hamamatsu, Japan) to determine agonist activities. The cells were then incubated for 30 minutes at room temperature followed by addition of 20 μL of agonist peptide for antagonist activity measurement. […] Compound potency was derived from 11-point concentration-response curves.", "units": {"IC50": "nM"}, "values": [{"compound": "COc1cnc2c(-c3nc4cc(F)c(O[C@@H]5CC[C@@H]5OC(=O)Nc5cnc(OC[C@@H](C)O)nc5)cc4s3)cc(C)cc2n1", "note": "(stereo in doubt) [Example 62, cis-2-((5-fluoro-2-(2-methoxy-7-methylquinoxalin-5-yl)benzo[d]thiazol-6-yl)oxy)cyclobutyl (2-((R)-2-hydroxypropoxy)pyrimidin-5-yl)carbamate (Homochiral)]", "IC50": 6.9}, {"compound": "COc1cnc2c(-c3nc4cc(F)c(O[C@@H]5CC[C@@H]5OC(=O)Nc5cnc(OCCO)nc5)cc4s3)cc(C)cc2c1", "note": "(stereo in doubt) [Example 74, cis-2-((5-fluoro-2-(3-methoxy-6-methylquinolin-8-yl)benzo[d]thiazol-6-yl)oxy)cyclo butyl (2-(2-hydroxyethoxy)pyrimidin-5-yl)carbamate (Homochiral)]", "IC50": 8.9}, {"compound": "COc1cnc2c(-c3nc4cc(F)c(O[C@@H]5CC(F)(F)C[C@@H]5OC(=O)Nc5cnc(C)nc5)cc4s3)cc(C)cc2n1", "note": "(stereo in doubt) [Example 99, (cis)-4,4-difluoro-2-((5-fluoro-2-(2-methoxy-7-methylquinoxalin-5-yl)benzo[d]thiazol-6-yl)oxy)cyclopentyl (2-methylpyrimidin-5-yl)carbamate (Homochiral)]", "IC50": 32}]}, {"biological_target": "PAR4 (Homo sapiens (Human), UniProt Q96RI0)", "test": "PAR4 FLIPR assay (antagonism of agonist-peptide-induced calcium mobilization)", "type": "cell-based", "conditions": "H-Ala-Phe(4-F)-[…]NH2-induced intracellular calcium mobilization, PAR4-expressing HEK293 cells; read-out: PAR4 FLTPR assay (IC50)", "source_text": "as §1, §2, §3", "units": {"IC50": "nM"}, "values": [{"compound": "COc1ccc(NC(=O)O[C@H]2CCOC[C@H]2Oc2cc3sc(-c4cc(C#N)cc5nc(OC)cnc45)nc3cc2F)cn1", "note": "(racemic) [Example 89, rac-cis-3-((2-(7-cyano-2-methoxyquinoxalin-5-yl)-5-fluorobenzo[d]thiazol-6-yl)oxy)tetrahydro-2H-pyran-4-yl (6-methoxypyridin-3-yl)carbamate]", "IC50": 3.8}, {"compound": "COc1cnc2c(-c3nc4cc(F)c(O[C@@H]5CN(C(=O)OCc6ccccc6)C[C@H]5O)cc4s3)cc(C)cc2n1", "note": "(racemic) [Example 90, rac-trans-benzyl 3-((5-fluoro-2-(2-methoxy-7-methylquinoxalin-5-yl)benzo[d]thiazol-6-yl)oxy)-4-hydr oxopyrrolidine-1-carboxylate]", "IC50": 330}, {"compound": "COc1cnc2c(-c3nc4cc(F)c(O[C@@H]5CN(C(=O)OC(C)(C)C)CC[C@@H]5OC(=O)Nc5cnc(C)nc5)cc4s3)cc(C)cc2n1", "note": "(racemic) [Example 91, rac-cis-tert-butyl 3-((5-fluoro-2-(2-methoxy-7-methylquinoxalin-5-yl)benzo[d]thiazol-6-yl)oxy)-4-(((2-methylpyrimidin-5-yl)carbamoyl)oxy)piperidine-1-carboxylate]", "IC50": 3.8}, {"compound": "COc1ccc(NC(=O)O[C@H]2CCN(C(=O)OC(C)(C)C)C[C@H]2Oc2cc3sc(-c4cc(C)cc5nc(OC)cnc45)nc3cc2F)cn1", "note": "(racemic) [Example 92, rac-cis-tert-butyl 3-((5-fluoro-2-(2-methoxy-7-methylquinoxalin-5-yl)benzo[d]thiazol-6-yl)oxy)-4-(((6-methoxypyridin-3-yl)carbamoyl)oxy)piperidine-1-carboxylate]", "IC50": 12}, {"compound": "COc1cnc2c(-c3nc4cc(F)c(O[C@@H]5CN(C(C)=O)CC[C@@H]5OC(=O)Nc5cnc(C)nc5)cc4s3)cc(C)cc2n1", "note": "(racemic) [Example 94, rac-cis-1-acetyl-3-((5-fluoro-2-(2-methoxy-7-methylquinoxalin-5-yl)benzo[d]thiazol-6-yl)oxy)piperidin-4-yl (2-methylpyrimidin-5-yl)carbamate]", "IC50": 2300}, {"compound": "COc1cnc2c(-c3nc4cc(F)c(O[C@@H]5CN(S(C)(=O)=O)CC[C@@H]5OC(=O)Nc5cnc(C)nc5)cc4s3)cc(C)cc2n1", "note": "(racemic) [Example 95, rac-cis-3-((5-fluoro-2-(2-methoxy-7-methylquinoxalin-5-yl)benzo[d]thiazol-6-yl)oxy)-1-(methylsulfonyl)piperidin-4-yl (2-methylpyrimidin-5-yl)carbamate]", "IC50": 72}, {"compound": "COc1cnc2c(-c3nc4cc(F)c(O[C@@H]5CN(C(=O)C(F)(F)F)CC[C@@H]5OC(=O)Nc5cnc(C)nc5)cc4s3)cc(C)cc2n1", "note": "(racemic) [Example 96, rac-cis-3-((5-fluoro-2-(2-methoxy-7-methylquinoxalin-5-yl)benzo[d]thiazol-6-yl)oxy)-1-(2,2,2-trifluoroacetyl)piperidin-4-yl (2-methylpyrimidin-5-yl)carbamate]", "IC50": 44}, {"compound": "COc1cnc2c(-c3nc4cc(F)c(O[C@@H]5CC(F)(F)C[C@@H]5OC(=O)Nc5cnc(C)nc5)cc4s3)cc(C)cc2n1", "note": "(racemic) [Example 97, rac-cis-4,4-difluoro-2-((5-fluoro-2-(2-methoxy-7-methylquinoxalin-5-yl)benzo[d]thiazol-6-yl)oxy)cyclopentyl (2-methylpyrimidin-5-yl)carbamate)]", "IC50": 9.2}, {"compound": "COc1cnc2c(-c3nc4cc(F)c(O[C@@H]5CC(F)(F)C[C@@H]5OC(=O)Nc5cnc(C)nc5)cc4s3)cc(Cl)cc2c1", "note": "(racemic) [Example 98, rac-cis-2-((2-(6-chloro-3-methoxyquinolin-8-yl)-5-fluorobenzo[d]thiazol-6-yl)oxy)-4,4-difluorocyclopentyl (2-methylpyrimidin-5-yl)carbamate]", "IC50": 14}, {"compound": "COc1cnc2c(-c3nc4cc(F)c(O[C@@H]5CCC(C)(C)[C@@H]5O)cc4s3)cc(C)cc2n1", "note": "(racemic) [Example 103, rac-cis-5-((5-fluoro-2-(2-methoxy-7-methyl)quinoxalin-5-yl)benzo[d]thiazol-6-yl)oxy)-2,2-dimethylcyclopentanol]", "IC50": 20}, {"compound": "COc1cnc2c(-c3nc4cc(F)c(O[C@@H]5CCC(C)(C)[C@@H]5OC(=O)Nc5cnc(C)nc5)cc4s3)cc(C)cc2n1", "note": "(racemic) [Example 104, rac-cis-5-((5-fluoro-2-(2-methoxy-7-methylquinoxalin-5-yl)benzo[d]thiazol-6-yl)oxy)-2,2-dimethylcyclopentyl (2-methylpyrimidin-5-yl)carbamate]", "IC50": 2.4}, {"compound": "COc1cnc2c(-c3nc4cc(F)c(O[C@H]5CCCC[C@H]5OC(=O)Nc5cccnc5)cc4s3)cc(C)cc2n1", "note": "(single isomer, unassigned; enantiomer 1) [Example 58, cis-2-((5-fluoro-2-(2-methoxy-7-methylquinoxalin-5-yl)benzo[d]thiazol-6-yl)oxy)cyclohexyl pyridin-3-ylcarbamate (Enantiomer 1)]", "IC50": 1.4}, {"compound": "COc1cnc2c(-c3nc4cc(F)c(O[C@H]5CC(C)(C)C[C@H]5OC(=O)Nc5cnc(C)nc5)cc4s3)cc(C)cc2n1", "note": "(single isomer, unassigned; enantiomer 1) [Example 84, (cis)-2-((5-fluoro-2-(2-methoxy-7-methylquinoxalin-5-yl)benzo[d]thiazol-6-yl)oxy)-4,4-dimethylcyclopentyl (2-methylpyrimidin-5-yl)carbamate Enantiomer 1]", "IC50": 5.4}, {"compound": "COc1cnc2c(-c3nc4cc(F)c(O[C@@H]5CCCC[C@@H]5OC(=O)Nc5cccnc5)cc4s3)cc(C)cc2n1", "note": "(single isomer, unassigned; enantiomer 2) [Example 59, cis-2-((5-fluoro-2-(2-methoxy-7-methylquinoxalin-5-yl)benzo[d]thiazol-6-yl)oxy)cyclohexyl pyridin-3-ylcarbamate (Enantiomer 2)]", "IC50": 77}, {"compound": "COc1cnc2c(-c3nc4cc(F)c(O[C@@H]5CC(C)(C)C[C@@H]5OC(=O)Nc5cnc(C)nc5)cc4s3)cc(C)cc2n1", "note": "(single isomer, unassigned; enantiomer 2) [Example 85, (cis)-2-((5-fluoro-2-(2-methoxy-7-methylquinoxalin-5-yl)benzo[d]thiazol-6-yl)oxy)-4,4-dimethylcyclopentyl (2-methylpyrimidin-5-yl)carbamate Enantiomer 2]", "IC50": 41}]}]}
